Laboratory results reported in patent US8129371B2, “Thienopyrimidine and pyrazolopyrimidine compounds and their use as mTOR kinase and PI3 kinase inhibitors” (Wyeth LLC, priority 2007, dated 2012).
pIC50: −log10 of the molar value. Like-named read-outs stand apart in the source and are kept apart here.

What was measured:
breast line MDA468 = test: In vitro cell culture growth assay (MTS), MDA468; type: cell-based; settings: Homo sapiens, 72 h, MDA468 cells, three days after drug treatment
Procedure, shortened: (§1)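 The readout was MTS dye metabolism at 490 nm, taken after 3-day drug exposure that began the day after seeding. Growth was expressed as percent of vehicle-treated wells in the same plate.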

prostate line LNCap = test: In vitro cell culture growth assay (MTS), LNCap; type: cell-based; settings: Homo sapiens, LNCaP, 72 h, LNCap cells, three days after drug treatment
Procedure, shortened: as §1

Human mTOR (FLAG-TOR) = target: T1, Human mTOR (FLAG-TOR) (Homo sapiens, UniProt P42345); test: Human mTOR kinase assay with purified enzyme, DELFIA format; type: biochemical
T1 construct: FLAG
Procedure, shortened: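 Purified FLAG-mTOR in HEPES pH 7.4 buffer with 10 mM MnCl2 was preincubated with inhibitor and reacted 2 h at room temperature with His6-S6K substrate, then stopped with EDTA/EGTA. Phospho-T389 S6K detected by DELFIA with Eu-labelled antibody (40 ng/mL) after plate capture; inhibition computed from signal.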

PI3K [1] = target: T2, PI3K (Homo sapiens, UniProt P42336); test: Fluorescence polarization assay for PI3K; type: biochemical; settings: read-out: PI3 Kinase α IC50
T2 construct: PI3 Kinase α IC50; other: PI3 Kinase α; other: PI3 Kinase α isoform, fluorescence polarization
T2 sequence (P42336 whole entry, canonical isoform): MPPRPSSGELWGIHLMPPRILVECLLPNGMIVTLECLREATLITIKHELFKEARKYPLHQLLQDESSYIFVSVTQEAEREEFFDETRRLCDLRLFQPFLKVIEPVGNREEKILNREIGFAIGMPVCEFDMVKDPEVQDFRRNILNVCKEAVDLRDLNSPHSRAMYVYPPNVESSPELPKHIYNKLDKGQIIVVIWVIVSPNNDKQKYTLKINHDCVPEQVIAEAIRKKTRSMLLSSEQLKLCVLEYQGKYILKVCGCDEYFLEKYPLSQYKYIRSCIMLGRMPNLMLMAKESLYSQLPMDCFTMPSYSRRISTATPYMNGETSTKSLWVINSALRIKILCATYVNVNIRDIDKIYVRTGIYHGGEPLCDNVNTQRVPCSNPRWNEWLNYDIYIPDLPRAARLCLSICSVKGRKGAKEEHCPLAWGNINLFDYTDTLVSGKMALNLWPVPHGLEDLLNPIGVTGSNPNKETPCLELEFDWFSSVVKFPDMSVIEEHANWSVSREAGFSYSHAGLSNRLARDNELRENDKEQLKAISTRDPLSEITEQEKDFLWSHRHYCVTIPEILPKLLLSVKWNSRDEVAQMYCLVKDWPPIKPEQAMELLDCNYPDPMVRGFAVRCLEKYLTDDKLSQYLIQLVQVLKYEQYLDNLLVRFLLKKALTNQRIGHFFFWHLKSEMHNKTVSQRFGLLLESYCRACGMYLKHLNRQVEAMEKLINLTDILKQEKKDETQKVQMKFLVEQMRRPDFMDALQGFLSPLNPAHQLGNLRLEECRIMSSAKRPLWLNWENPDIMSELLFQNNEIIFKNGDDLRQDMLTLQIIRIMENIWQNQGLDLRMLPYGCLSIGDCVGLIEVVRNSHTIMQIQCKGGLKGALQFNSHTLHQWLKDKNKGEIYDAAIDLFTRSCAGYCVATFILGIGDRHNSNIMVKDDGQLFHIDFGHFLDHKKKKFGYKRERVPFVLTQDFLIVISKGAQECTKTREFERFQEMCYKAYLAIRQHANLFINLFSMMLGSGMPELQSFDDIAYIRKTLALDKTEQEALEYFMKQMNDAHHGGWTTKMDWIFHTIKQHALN
Procedure, shortened: (§2)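 PI3K was preincubated with compound (final DMSO 1%), and the reaction was started with PIP2/ATP substrate and run 30–60 min. It was stopped with a detector mix giving 10 nM red probe and 70 nM GST-GRP.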

PI3K [2] = target: T3, PI3K (Homo sapiens, UniProt P48736); test: Fluorescence polarization assay for PI3K; type: biochemical; settings: read-out: PI3 Kinase γ IC50
T3 construct: PI3 Kinase γ IC50; other: PI3 Kinase γ; other: PI3 Kinase γ isoform, fluorescence polarization
T3 sequence (P48736 whole entry, canonical isoform): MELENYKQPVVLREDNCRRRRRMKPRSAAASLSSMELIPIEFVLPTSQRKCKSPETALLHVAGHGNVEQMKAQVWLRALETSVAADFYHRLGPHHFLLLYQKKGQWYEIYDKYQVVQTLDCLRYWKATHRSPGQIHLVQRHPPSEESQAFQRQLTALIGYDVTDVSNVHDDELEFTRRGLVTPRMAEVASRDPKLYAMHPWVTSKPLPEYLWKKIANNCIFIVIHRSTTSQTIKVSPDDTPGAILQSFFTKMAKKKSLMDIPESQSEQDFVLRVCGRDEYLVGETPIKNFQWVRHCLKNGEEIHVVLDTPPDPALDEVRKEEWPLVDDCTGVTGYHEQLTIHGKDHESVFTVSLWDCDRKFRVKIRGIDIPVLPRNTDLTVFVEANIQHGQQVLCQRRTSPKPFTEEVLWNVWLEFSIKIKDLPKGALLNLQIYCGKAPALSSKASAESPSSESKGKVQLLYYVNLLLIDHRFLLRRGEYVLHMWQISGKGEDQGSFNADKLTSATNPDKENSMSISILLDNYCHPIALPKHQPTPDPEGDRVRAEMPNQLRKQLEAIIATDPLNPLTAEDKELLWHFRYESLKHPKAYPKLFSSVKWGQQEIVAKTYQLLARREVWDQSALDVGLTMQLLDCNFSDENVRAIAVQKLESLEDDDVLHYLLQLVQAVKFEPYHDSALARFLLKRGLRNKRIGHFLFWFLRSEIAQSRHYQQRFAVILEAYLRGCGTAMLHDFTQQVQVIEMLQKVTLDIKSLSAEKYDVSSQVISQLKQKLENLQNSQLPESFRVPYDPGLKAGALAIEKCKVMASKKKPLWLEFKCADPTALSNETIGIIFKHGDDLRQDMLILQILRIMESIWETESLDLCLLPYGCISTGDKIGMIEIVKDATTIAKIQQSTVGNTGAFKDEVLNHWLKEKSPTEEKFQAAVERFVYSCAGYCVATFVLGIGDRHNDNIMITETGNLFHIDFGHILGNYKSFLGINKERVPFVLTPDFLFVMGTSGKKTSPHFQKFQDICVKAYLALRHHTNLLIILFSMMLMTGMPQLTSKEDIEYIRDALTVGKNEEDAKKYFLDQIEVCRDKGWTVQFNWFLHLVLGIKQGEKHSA
Procedure, shortened: as §2

[3] = purified human mTOR enzyme, DELFIA format
[4] = PI3 Kinase α isoform, fluorescence polarization
[5] = PI3 Kinase γ isoform, fluorescence polarization

Compound | pIC50 (prostate line LNCap) | pIC50 (Human mTOR (FLAG-TOR)) | pIC50 (PI3K [1]; PI3 Kinase α) | pIC50 (PI3K [2]; PI3 Kinase γ) | pIC50 (Human mTOR (FLAG-TOR); [3]) | pIC50 (PI3K [1]; [4]) | pIC50 (PI3K [2]; [5]) | pIC50 (breast line MDA468)
O=C(Nc1ccc(-c2nc(N3CC4CCC(C3)O4)c3cn[nH]c3n2)cc1)Nc1cccnc1 [Example 91, 1-{4-[4-(8-oxa-3-azabicyclo[3.2.1]oct-3-yl)-1H-pyrazolo[3,4-d]pyrimidin-6-yl]phenyl}-3-pyridin-3-ylurea] | 6.30 | 9.31 | 6.51 | 5.58 | – | – | – | 6.92
CCOC(=O)N1CCC(n2ncc3c(N4CC5CCC(C4)O5)nc(-c4ccc(NC(=O)NC5CCNCC5)cc4)nc32)CC1 [Example 103, ethyl 4-[4-(8-oxa-3-azabicyclo[3.2.1]oct-3-yl)-6-{4-[(piperidin-4-ylcarbamoyl)amino]phenyl}-1H-pyrazolo[3,4-d]pyrimidin-1-yl]piperidine-1-carboxylate] | 5.30 | 8.17 | 6.06 | 5.96 | – | – | – | 4.96
CCNC(=O)Nc1ccc(-c2nc(N3CC4CCC(C3)O4)c3cnn(C4CCN(C(=O)OC)CC4)c3n2)cc1 [Example 9, methyl 4-[6-{4-[(ethylcarbamoyl)amino]phenyl}-4-(8-oxa-3-azabicyclo[3.2.1]oct-3-yl)-1H-pyrazolo[3,4-d]pyrimidin-1-yl]piperidine-1-carboxylate] | 8.05 | 9.66 | 5.27 | < 5.00 | – | – | – | 6.74
CC(C)n1ncc2c(N3CC4CCC(C3)O4)nc(-c3ccc(NC(=O)OCCCO)cc3)nc21 [Example 145, 3-hydroxypropyl {4-[1-isopropyl-4-(8-oxa-3-azabicyclo[3.2.1]oct-3-yl)-1H-pyrazolo[3,4-d]pyrimidin-6-yl]phenyl}carbamate] | 6.60 | 8.56 | 5.47 | < 5.00 | – | – | – | 4.92
COC(=O)Nc1ccc(-c2nc(N3CC4CCC(C3)O4)c3cnn(C4CCN(C(=O)OC)CC4)c3n2)cc1 [Example 119, methyl 4-[6-{4-[(methoxycarbonyl)amino]phenyl}-4-(8-oxa-3-azabicyclo[3.2.1]oct-3-yl)-1H-pyrazolo[3,4-d]pyrimidin-1-yl]piperidine-1-carboxylate] | 6.74 | 8.44 | 5.33 | < 5.00 | – | – | – | 5.92
CCOC(=O)Nc1ccc(-c2nc(N3CC4CCC(C3)O4)c3cnn(CCO)c3n2)cc1 [Example 208, ethyl {4-[1-(2-hydroxyethyl)-4-(8-oxa-3-azabicyclo[3.2.1]oct-3-yl)-1H-pyrazolo[3,4-d]pyrimidin-6-yl]phenyl}carbamate] | 6.66 | 8.09 | 5.73 | < 5.00 | – | – | – | 6.05
CCNC(=O)Nc1ccc(-c2nc(N3CC4CCC(C3)O4)c3cnn(C4CCN(C(=O)C(C)C)CC4)c3n2)cc1 [Example 83, 1-ethyl-3-{4-[1-(1-isobutyrylpiperidin-4-yl)-4-(8-oxa-3-azabicyclo[3.2.1]oct-3-yl)-1H-pyrazolo[3,4-d]pyrimidin-6-yl]phenyl}urea] | 7.40 | 9.12 | 5.63 | < 5.00 | – | – | – | 6.62
O=C(Nc1ccc(-c2nc(N3CC4CCC(C3)O4)c3cnn(CC(F)(F)F)c3n2)cc1)Nc1cccnc1 [Example 4, 1-{4-[4-(8-oxa-3-azabicyclo[3.2.1]oct-3-yl)-1-(2,2,2-trifluoroethyl)-1H-pyrazolo[3,4-d]pyrimidin-6-yl]phenyl}-3-pyridin-3-ylurea] | > 7.57 | 9.74 | 6.46 | 5.67 | – | – | – | > 7.57

More lines, main results first:

pIC50 (prostate line LNCap) | pIC50 (Human mTOR (FLAG-TOR)) | pIC50 (PI3K [1]; PI3 Kinase α) | pIC50 (PI3K [2]; PI3 Kinase γ) | pIC50 (Human mTOR (FLAG-TOR); [3]) | pIC50 (PI3K [1]; [4]) | pIC50 (PI3K [2]; [5]) | Compound | pIC50 (breast line MDA468)
9.00 | 9.73 | 6.13 | < 5.00 | – | – | – | O=C(Nc1ccc(-c2nc(N3CC4CCC(C3)O4)c3cnn(CCF)c3n2)cc1)Nc1ccc(N2CCOCC2)cc1 [Example 244, 1-{4-[1-(2-fluoroethyl)-4-(8-oxa-3-azabicyclo[3.2.1]oct-3-yl)-1H-pyrazolo[3,4-d]pyrimidin-6-yl]phenyl}-3-(4-morpholin-4-ylphenyl)urea] | 8.15
5.21 | 5.79 | 5.02 | 4.92 | – | – | – | Nc1cccc(COC(=O)Nc2ccc(-c3nc(N4CC5CCC(C4)O5)c4cnn(CC(F)(F)F)c4n3)cc2)c1 [Example 254, 3-aminobenzyl {4-[4-(8-oxa-3-azabicyclo[3.2.1]oct-3-yl)-1-(2,2,2-trifluoroethyl)-1H-pyrazolo[3,4-d]pyrimidin-6-yl]phenyl}carbamate] | 6.70
5.49 | 7.63 | 5.74 | 5.09 | – | – | – | CCn1ncc2c(N3CC4CCC(C3)O4)nc(-c3ccc(NC(=O)NCCC(=O)NCCN(C)C)cc3)nc21 [Example 279] | 5.22
7.07 | – | – | – | 9.03 | 6.37 | < 5.00 | CNC(=O)Nc1ccc(-c2nc(N3CC4CCC(C3)O4)c3sccc3n2)cc1 [Example 406, 1-methyl-3-{4-[4-(8-oxa-3-azabicyclo[3.2.1]oct-3-yl)thieno[3,2-d]pyrimidin-2-yl]phenyl}urea] | 6.40
> 9.00 | – | – | – | 9.48 | 6.97 | 5.87 | CN1CCN(c2ccc(NC(=O)Nc3ccc(-c4nc(N5CC6CCC(C5)O6)c5cnn([C@H]6CC[C@@H](O)CC6)c5n4)cc3)cc2)CC1 (relative stereo) [Example 405, 1-{4-[1-(cis-4-hydroxycyclohexyl)-4-(8-oxa-3-azabicyclo[3.2.1]oct-3-yl)-1H-pyrazolo[3,4-d]pyrimidin-6-yl]phenyl}-3-[4-(4-methylpiperazin-1-yl)phenyl]urea] | 7.70
5.77 | – | – | – | 7.59 | 5.36 | < 5.00 | CC(=O)Nc1ccc(-c2nc(N3CC4CCC(C3)O4)c3sccc3n2)cc1 [Example 415, N-{4-[4-(8-oxa-3-azabicyclo[3.2.1]oct-3-yl)thieno[3,2-d]pyrimidin-2-yl]phenyl}acetamide] | 5.07
> 9.00 | 9.91 | 7.40 | 5.66 | – | – | – | N#CCCn1ncc2c(N3CC4CCC(C3)O4)nc(-c3ccc(NC(=O)Nc4ccc(CO)cc4)cc3)nc21 [Example 218, 1-{4-[1-(2-cyanoethyl)-4-(8-oxa-3-azabicyclo[3.2.1]oct-3-yl)-1H-pyrazolo[3,4-d]pyrimidin-6-yl]phenyl}-3-[4-(hydroxymethyl)phenyl]urea] | > 9.00
6.92 | – | – | – | 8.85 | 7.34 | 5.43 | CNC(=O)Nc1ccc(-c2nc(N3CC4CCC(C3)O4)c3sc(CN4CCN(S(C)(=O)=O)CC4)cc3n2)cc1 [Example 429, 1-methyl-3-{4-[6-{[4-(methylsulfonyl)piperazin-1-yl]methyl}-4-(8-oxa-3-azabicyclo[3.2.1]oct-3-yl)thieno[3,2-d]pyrimidin-2-yl]phenyl}urea] | 7.05
> 9.00 | 9.73 | 6.99 | 5.92 | – | – | – | O=C(Nc1ccncc1)Nc1ccc(-c2nc(N3CC4CCC(C3)O4)c3cnn(CCF)c3n2)cc1 [Example 249, 1-{4-[1-(2-fluoroethyl)-4-(8-oxa-3-azabicyclo[3.2.1]oct-3-yl)-1H-pyrazolo[3,4-d]pyrimidin-6-yl]phenyl}-3-pyridin-4-ylurea] | 8.10
